The test system of the first assay is AGS cells. Put plainly: Cell viability in AGS cells (CellTiter Glo2, 8-point dose response, 4 days). Type of assay: cell-based, human.
Details: not given
As for the experimental part: AGS cells were treated with DMSO (no drug control) or each compound in Table 5 in an 8-point dose response for 4 days. Cell viability was measured using CellTiter Glo2. The IC50 of each compound was determined using CDD Vault.
On the technique in general: ATP-based viability assays read luminescence as a measure of living cells.
By IC50 is commonly meant the concentration that inhibits the measured activity by half. The low end stands for higher potency, the high end for lower potency. For `CCC(=O)N1CCc2cc(-c3ccc(C(=O)NCc4ccccn4)cc3)ccc21` [Compound I-185, 4-(1-propionylindolin-5-yl)-N-(pyridin-2-ylmethyl)benzamide], half-maximal inhibition (IC50) required 21 µM.

`CCC(=O)N1CCc2cc(-c3ccc(C(=O)NCc4cccnc4)nc3)ccc21` [Compound I-55, 5-(1-propionylindolin-5-yl)-N-(pyridin-3-ylmethyl)picolinamide]: the concentration for half-maximal inhibition (IC50) was 3.66 µM. This IC50 is about 5.7-fold lower than that of the molecule before.

The same assay, now with this note: Homo sapiens, AGS, 96 h.
With `CCC(=O)N1CCc2cc(-c3ccc(C(=O)NCc4cccnc4)cc3)c(C)cc21` (single isomer, unassigned) [Compound I-203, 4-(6-methyl-1-propionylindolin-5-yl)-N-(pyridin-3-ylmethyl)benzamide], the IC50 came out at 1.54 µM.

Turning to `CCC(=O)Nc1ccc(-c2ccc(C(=O)NCc3cccnc3)cc2)cc1` [Compound I-44, 4′-propionamido-N-(pyridin-3-ylmethyl)-[1,1′-biphenyl]-4-Carboxamide], the IC50 is more than 30 µM.

As for `CCC(=O)N1CCc2c1ccc(-c1ccc(C(=O)NCc3cccnc3)cc1)c2Cl` [Compound I-214], the 50% inhibitory concentration (IC50) is 0.96 µM.

`CCC(=O)N(C)c1ccc(-c2ccc(C(=O)NCc3cccnc3)cn2)c(C)c1` [Compound I-246, 6-(2-methyl-4-(N-methylpropionamido)phenyl)-N-(pyridin-3-ylmethyl)nicotinamide] returned an IC50 of 12.1 µM. This IC50 lies about 13-fold higher than the previous one.

Regarding `CCC(=O)N1CCc2cc(-c3ccc(C(=O)NCc4ccccn4)cc3)ccc21` [Compound I-185, 4-(1-propionylindolin-5-yl)-N-(pyridin-2-ylmethyl)benzamide], the IC50 worked out at 15.5 µM. The IC50 values of the last two molecules are within 1.5-fold of each other.

The molecule `CCC(=O)N1CCc2cc(-c3ccc(C(=O)NCc4cncnc4)cc3)ccc21` [Compound I-51, 4-(1-propionylindolin-5-yl)-N-(pyrimidin-5-ylmethyl)benzamide] yielded an IC50 of more than 30 µM.

As for `CCC(=O)N1CCc2cc(-c3ccc(C(=O)NC(C)c4ccccc4)cc3)ccc21` (centres unmarked) [Compound I-160], the half-inhibitory concentration (IC50) is more than 30 µM.

With `CCC(=O)N1CCc2cc(N3CC(C(=O)NCc4cccnc4)C3)ccc21` [Compound I-209, 1-(1-propionylindolin-5-yl)-N-(pyridin-3-ylmethyl)azetidine-3-carboxamide], the half-maximal inhibitory concentration (IC50) was more than 30 µM.

As for `CCCC(=O)N(C)c1ccc(-c2ccc(C(=O)NCc3cccnc3)cc2)cc1` [Compound I-230, 4′-(N-methylbutyramido)-N-(pyridin-3-ylmethyl)-[1,1′-biphenyl]-4-carboxamide], it took 4.57 µM to reach half-maximal inhibition (IC50).

In the case of `CCC(=O)N(C)c1ccc(-c2ccc(C(=O)NCc3ccccc3)cc2)cc1` [Compound I-239], the IC50 was more than 30 µM.

`CCC(=O)N1CCc2cc(-c3ccc(C(=O)NCc4cncc(C)c4)cc3)ccc21` [Compound I-198, N-((5-methylpyridin-3-yl)methyl)-4-(1-propionylindolin-5-yl)benzamide] yielded an IC50 of 1.06 µM.

In turn, `CCC(=O)N1CCc2cc(-c3ccc(C(=O)NCc4cccnc4)cc3F)ccc21` [Compound I-97, 3-fluoro-4-(1-propionylindolin-5-yl)-N-(pyridin-3-ylmethyl) benzamide] displayed an IC50 of 3.17 µM.

For `O=C(NCc1cccnc1)c1ccc(-c2ccc3c(c2)CCN3C(=O)CO)cc1` [Compound I-47, 4-(1-(2-hydroxyacetyl)indolin-5-yl)-N-(pyridin-3-ylmethyl)benzamide], it took 3.22 µM to reach half-maximal inhibition (IC50).

Consider `CC(C)(O)C(=O)N1CCc2cc(-c3ccc(C(=O)NCc4cccnc4)cc3)ccc21` [Compound I-68, 4-(1-(2-hydroxy-2-methylpropanoyl)indolin-5-yl)-N-(pyridin-3-ylmethyl)benzamide], for which the IC50 was 29.7 µM.

`CN(C(=O)c1ccccc1)c1ccc(-c2ccc(C(=O)NCc3cccnc3)cc2)cc1` [Compound I-240] came in with a 50% inhibitory concentration (IC50) of 5.11 µM.

In turn, `CCC(=O)N1CCc2cc(-c3ccc(C(=O)NCc4cn[nH]c4)cc3)ccc21` [Compound I-72, N-((1H-pyrazol-4-yl)methyl)-4-(1-propionylindolin-5-yl)benzamide] returned a concentration for half-maximal inhibition (IC50) of more than 30 µM.

In turn, `CCC(=O)N1CCc2cc(-c3ccc(C(=O)NCc4ccc(C)nc4)cc3)ccc21` [Compound I-59, N-((6-methylpyridin-3-yl)methyl)-4-(1-propionylindolin-5-yl) benzamide] displayed an IC50 of more than 30 µM.

`CCC(=O)N1CCc2cc(-c3ccc(C(=O)NCc4cccnc4)nc3)ccc21` [Compound I-55, 5-(1-propionylindolin-5-yl)-N-(pyridin-3-ylmethyl)picolinamide] had a half-inhibitory concentration (IC50) of 2.89 µM. This lies in the single-digit micromolar range.

The values are drawn from US12522587B2, “Cancer treatments targeting cancer stem cells” (Remedy Plan, Inc., priority 2018, dated 2026).
